The nature of test [1]: Inhibition of FLT3 ITD mutant in human MOLM13 cells assessed as reduction in cell viability incubated for 72 hrs by MTT assay. (Tetrazolium dyes change colour on reduction, which living cells bring about.)
Test [2] in a line: Inhibition of JAK2 V617F mutant in human SET-2 cells assessed as reduction in cell viability incubated for 72 hrs by MTT assay.
The nature of test [3]: Inhibition of JAK2 V617F mutant in mouse BaF3 cells assessed as reduction in cell viability incubated for 72 hrs by MTT assay.

Each structure is given as a SMILES string.

Take `Cc1cnc(Nc2ccc(N3CCC(N(C)CCO)CC3)c(F)c2)nc1-c1cnn(C(C)C)c1`: the IC50 in test [1] worked out at 0.072 µM.

With `Cc1cnc(Nc2ccc3c(c2)CCN3CCO)nc1-c1cnn(C(C)C)c1`, the results for the IC50 in test [1], in test [2] and in test [3] were 2.06 µM, 3.79 µM and 4.39 µM, respectively.

Turning to `Cc1cnc(Nc2ccc3c(c2)CN(CCO)C3)nc1-c1cnn(C(C)C)c1`, in test [1], the IC50 came out at 1.78 µM.

`Cc1cnc(Nc2ccc3c(c2)CCN(CCO)C3)nc1-c1cnn(C(C)C)c1`: the IC50 in test [1] was determined as 1.26 µM; in test [2] it was 0.323 µM; in test [3], 0.431 µM.

For `Cc1cnc(Nc2ccc3c(c2)CCN(CCCO)C3)nc1-c1cnn(C(C)C)c1`, the figures for the IC50 in test [1], in test [2] and in test [3] were 1.32 µM, 0.394 µM and 0.365 µM, respectively.

In the case of `CC(C)n1cc(-c2nc(Nc3ccc4c(c3)CCN(C(=O)CO)C4)ncc2F)cn1`, the IC50 in test [1] came to 0.453 µM; in test [2] it was 0.574 µM; in test [3], 0.679 µM.

In the case of `Cc1cnc(Nc2ccc3c(c2)CCN(C(=O)Nc2cccc(Cl)c2)C3)nc1-c1cnn(C(C)C)c1`, the figures for the IC50 in test [1], in test [2] and in test [3] were 2.07 µM, 3.45 µM and 2.18 µM, respectively.

Regarding `CCNC(=O)N1CCc2cc(Nc3ncc(C)c(-c4cnn(C(C)C)c4)n3)ccc2C1`, the IC50 in test [1] amounted to 1.07 µM; in test [2], 2.35 µM; in test [3] it was 1.89 µM.

As to `CC(C)n1cc(-c2nc(Nc3ccc4c(c3)CCN(CCCO)C4)ncc2F)cn1`, the figures for the IC50 in test [1], in test [2] and in test [3] were 0.453 µM, 0.311 µM and 0.392 µM, respectively.

Turning to `CCCNC(=O)N1CCc2cc(Nc3ncc(C)c(-c4cnn(C(C)C)c4)n3)ccc2C1`, the values for the IC50 in test [1], in test [2] and in test [3] were 2.07 µM, 1.76 µM and 1.21 µM, respectively.

On to `Cc1cnc(Nc2cc3c(cc2F)CN(CCO)CC3)nc1-c1cnn(C(C)C)c1`, for which the IC50 was greater than 5 µM in test [1], 4.46 µM in test [2] and 2.57 µM in test [3].

Take `CC(C)n1cc(-c2nc(Nc3ccc4c(c3)CCN(CCO)C4)ncc2F)cn1`: the IC50 in test [1] came to 0.547 µM; in test [2], 0.651 µM; in test [3] it was 0.76 µM.

As for `CC(C)n1cc(-c2nc(Nc3ccc4c(c3)CCN(CCCCO)C4)ncc2F)cn1`, the values for the IC50 in test [1], in test [2] and in test [3] were 0.455 µM, 0.604 µM and 0.445 µM, respectively.

For `CC(C)n1cc(-c2nc(Nc3ccc4c(c3)CCN(CCCCCO)C4)ncc2F)cn1`, the IC50 in test [1] is 0.353 µM; in test [2] it was 0.492 µM; in test [3], 0.42 µM.

Take `Cc1cnc(Nc2ccc3c(c2)CCN(CCCCO)C3)nc1-c1cnn(C(C)C)c1`: the IC50 was found to be 0.879 µM in test [1], 0.268 µM in test [2] and 0.234 µM in test [3].

For `Cc1cnc(Nc2ccc3c(c2)CCN(CCCCCO)C3)nc1-c1cnn(C(C)C)c1`, the IC50 in test [1] came out at 0.965 µM.

As to `CCOCCN1CCc2cc(Nc3ncc(C)c(-c4cnn(C(C)C)c4)n3)ccc2C1`, the IC50 turned out to be 0.568 µM in test [1], 0.339 µM in test [2] and 0.302 µM in test [3].

Take `CCCCN1CCc2cc(Nc3ncc(C)c(-c4cnn(C(C)C)c4)n3)ccc2C1`: the IC50 in test [1] turned out to be 0.754 µM; in test [2], 0.592 µM; in test [3] it was 0.64 µM.

Regarding `C=CCN1CCc2cc(Nc3ncc(C)c(-c4cnn(C(C)C)c4)n3)ccc2C1`, the IC50 in test [1] is 0.868 µM; in test [2] it was 0.288 µM; in test [3], 0.452 µM.

Regarding `Cc1cnc(Nc2ccc3c(c2)CCN(CC#N)C3)nc1-c1cnn(C(C)C)c1`, the results for the IC50 in test [1] and in test [2] were 0.647 µM and 0.073 µM, respectively.

`Cc1cnc(Nc2ccc3c(c2)CCN(CCC#N)C3)nc1-c1cnn(C(C)C)c1`: the IC50 in test [1] worked out at 0.356 µM; in test [2] it was 0.296 µM; in test [3], 0.177 µM.

For `C#CCN1CCc2cc(Nc3ncc(C)c(-c4cnn(C(C)C)c4)n3)ccc2C1`, the IC50 in test [1] stood at 1.48 µM.

For the molecule `CC#CCN1CCc2cc(Nc3ncc(C)c(-c4cnn(C(C)C)c4)n3)ccc2C1`, the IC50 was 1.56 µM in test [1], 0.794 µM in test [2] and 0.908 µM in test [3].

In the case of `COC(=O)/C=C/CN1CCc2cc(Nc3ncc(C)c(-c4cnn(C(C)C)c4)n3)ccc2C1`, the IC50 in test [1] amounted to 0.497 µM; in test [2], 0.014 µM; in test [3] it was 0.01 µM.

As for `COC(=O)CCCN1CCc2cc(Nc3ncc(C)c(-c4cnn(C(C)C)c4)n3)ccc2C1`, the IC50 in test [1] was 1.29 µM; in test [2], 1.04 µM; in test [3], 0.938 µM.

In the case of `Cc1cnc(Nc2ccc3c(c2)CCN(C(=O)/C=C/C(=O)c2ccccc2)C3)nc1-c1cnn(C(C)C)c1`, the figures for the IC50 in test [1] and in test [2] were 0.458 µM and 0.052 µM, respectively.

As to `Cc1ccc(C(=O)/C=C/C(=O)N2CCc3cc(Nc4ncc(C)c(-c5cnn(C(C)C)c5)n4)ccc3C2)cc1`, the values for the IC50 in test [1], in test [2] and in test [3] were 0.758 µM, 0.015 µM and 0.013 µM, respectively.

Take `Cc1ccc(C(=O)CCC(=O)N2CCc3cc(Nc4ncc(C)c(-c5cnn(C(C)C)c5)n4)ccc3C2)cc1`: the IC50 is 1.05 µM in test [1], 0.626 µM in test [2] and 0.784 µM in test [3].

Regarding `Cc1cnc(Nc2ccc3c(c2)CCN(C(=O)/C=C/CN(C)C)C3)nc1-c1cnn(C(C)C)c1`, the IC50 in test [1] was 0.88 µM; in test [2], 0.012 µM.

On to `Cc1cnc(Nc2ccc3c(c2)CCN(C(=O)CCCN(C)C)C3)nc1-c1cnn(C(C)C)c1`, for which the IC50 in test [1] is 1.48 µM; in test [2] it was 0.985 µM; in test [3], 2.48 µM.

With `Cc1cnc(Nc2ccc3c(c2)CCN(C/C=C/C(=O)O)C3)nc1-c1cnn(C(C)C)c1`, the IC50 in test [1] came out at 0.845 µM; in test [2], 0.334 µM; in test [3], 0.128 µM.

For `Cc1cnc(Nc2ccc3c(c2)CCN(C/C=C/C(=O)NCCN2CCCCC2)C3)nc1-c1cnn(C(C)C)c1`, the IC50 amounted to 2.09 µM in test [1], 0.554 µM in test [2] and 1.2 µM in test [3].

On to `Cc1cnc(Nc2ccc3c(c2)CCN(C/C=C/C(=O)NC(C)(C)C)C3)nc1-c1cnn(C(C)C)c1`, for which the IC50 in test [1] amounted to 1.05 µM; in test [2], 0.612 µM; in test [3], 0.145 µM.

In the case of `CCN(CC)C(=O)/C=C/CN1CCc2cc(Nc3ncc(C)c(-c4cnn(C(C)C)c4)n3)ccc2C1`, the IC50 in test [1] worked out at 0.656 µM; in test [2], 0.329 µM; in test [3], 0.287 µM.

As for `Cc1cnc(Nc2ccc3c(c2)CN(CC#N)CC3)nc1-c1cnn(C(C)C)c1`, the IC50 stood at 0.425 µM in test [1], 0.095 µM in test [2] and 0.076 µM in test [3].

`Cc1cnc(Nc2ccc3c(n2)CCN(CCCO)C3)nc1-c1cnn(C(C)C)c1`: the IC50 is 2.57 µM in test [1], 2.18 µM in test [2] and 1.43 µM in test [3].

For `Cc1cnc(Nc2ccc3c(c2)CN(C(=O)/C=C/CN(C)C)CC3)nc1-c1cnn(C(C)C)c1`, the values for the IC50 in test [1], in test [2] and in test [3] were 0.456 µM, 0.015 µM and 0.025 µM, respectively.

Regarding `Cc1ccc(C(=O)/C=C/C(=O)N2CCc3ccc(Nc4ncc(C)c(-c5cnn(C(C)C)c5)n4)cc3C2)cc1`, in test [1], the IC50 came to 0.629 µM.

As to `COC(=O)/C=C/CN1CCc2ccc(Nc3ncc(C)c(-c4cnn(C(C)C)c4)n3)cc2C1`, the IC50 in test [1] was found to be 0.43 µM; in test [2], 0.072 µM; in test [3] it was 0.12 µM.

In the case of `Cc1cnc(Nc2ccc3c(c2)CN(C(=O)/C=C/C(=O)c2ccccc2)CC3)nc1-c1cnn(C(C)C)c1`, the IC50 came out at 0.535 µM in test [1], 0.043 µM in test [2] and 0.061 µM in test [3].

What is called IC50 is the concentration at which inhibition is half-maximal.

The record behind these values is BindingDB's records for doi:10.1021/acs.jmedchem.0c01488 (West China Hospital of Sichuan University, 2020).
